Test results: PubChem BioAssay AID463199 (Broad Institute, 2010)
Active and inactive are the calls of the source.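 How the source made its calls: active means AC50, the dose giving half-maximal effect, exceeds a fixed cutoff for a compound that rescues yeast growth under heat; inactive means the rest, inconclusive results apart.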

The compounds below were run on S. cerevisiae Burl-1 ts mutant growth, BacTiter-Glo, 38.5C 24 h (assay: growth induction of Burl-1 ts yeast mutant, dose response, counter-screen for SUMOylation pathway inhibitor project, whole organism, S. cerevisiae, luminescence (AID 463199)).

Row | Structure (SMILES) | AC50
1 | CCN(CC)C(=O)CSC(Nc1cccc(F)c1)=C(C#N)C#N | > 42 µM (inactive)
2 | O=C(c1ccco1)N1CCN(CC(=O)N2c3ccccc3CCc3ccccc32)CC1 | > 42 µM (inactive)
3 | CCn1c(-c2ccccc2)c(C(=O)CC#N)c2ccccc21 | > 42 µM (inactive)
4 | Cc1cc(-c2ccc(C(C)C)c(S(=O)(=O)N3CC(=O)Nc4ccccc43)c2)on1 | > 42 µM (inactive)
5 | O=C(NC1CCCCC1)N(Cc1cc2cc3c(cc2[nH]c1=O)OCCO3)C1CCCCC1 | > 42 µM (inactive)
6 | CCCCc1n[nH]c(=S)n1Cc1ccc(C)cc1 | > 42 µM (inactive)
7 | CS(=O)(=O)NCc1ccc(C(=O)NC2CCCCC2)cc1 | > 42 µM (inactive)
8 | Cc1cc(C)cc(-n2ncc3c2CCCC3NC(=O)c2cc(C)[nH]n2)c1 (stereo not given) | > 42 µM (inactive)
9 | Cc1[nH]oc(=O)c1N=Nc1c(Cl)cccc1Cl | > 42 µM (inactive)
10 | CN1c2ccccc2-c2nc3ccccc3n2C1c1ccncc1 (stereo not given) | > 42 µM (inactive)
11 | O=C(COc1cccnc1[N+](=O)[O-])Nc1ccc2c(c1)CCC2 | > 21 µM (inactive)
12 | CCOc1ccc(C(C(=O)NC2CCCC2)N(C(=O)c2snc(C(N)=O)c2N)C2CCCC2)cc1 (stereo not given) | > 42 µM (inactive)
13 | COc1ccc(N2C(=O)CSC2c2ccc([N+](=O)[O-])cc2)cc1 (stereo not given) | > 42 µM (inactive)
14 | CC(C)Sc1ccc(C(=O)Nc2ccc(F)cc2F)cn1 | > 42 µM (inactive)
15 | Brc1ccc(-c2cn3cccnc3n2)cc1 | > 42 µM (inactive)
16 | Cc1ccc(C(=O)NNc2ncnc3c2cnn3C)cc1 | > 42 µM (inactive)
17 | CC1(C)CC(=O)C=C(OC(=O)c2ccc(Cl)cc2)C1 | > 42 µM (inactive)
18 | COc1ccccc1NC(=O)CN(c1ccc(C)cc1)S(=O)(=O)c1c(C)n[nH]c1C | > 42 µM (inactive)
19 | CCOc1ncccc1-c1nc(-c2cccs2)no1 | > 42 µM (inactive)
20 | CCOc1ccc(N(C(=O)C2CCCO2)C2C=CS(=O)(=O)C2)cc1 (stereo not given) | > 42 µM (inactive)
21 | CCCOC(=O)c1c(-c2ccc(OC)cc2)oc2ccc(-c3ccc(OC)nc3)cc12 | > 42 µM (inactive)
22 | N#CCCN(Cc1cccnc1)C(=O)Nc1cccc(Cl)c1 | > 42 µM (inactive)
23 | O=C(O)c1cccc(NC(=O)c2cccc(S(=O)(=O)Nc3cccc([N+](=O)[O-])c3)c2)c1 | > 42 µM (inactive)
24 | CCCNC(=O)c1cc2c(C(F)(F)F)nn(C)c2s1 | > 42 µM (inactive)

Row | Structure (SMILES) | AC50
25 | COc1ccc(/C=N\NC(=O)c2cc(OCC(F)(F)F)ccc2OCC(F)(F)F)cc1 | > 42 µM (inactive)
26 | Cc1c(N=Cc2cc(Br)cc(Br)c2O)cccc1C(=O)O | > 42 µM (inactive)
27 | O=C(NCC(c1cccs1)N1CCOCC1)c1ccccc1NS(=O)(=O)c1cc([N+](=O)[O-])ccc1Cl (stereo not given) | > 42 µM (inactive)
28 | O=C(/C=C/NNC(=O)c1ccc(Br)cc1)c1ccccc1 | > 42 µM (inactive)
29 | COC(=O)C1CN(C(=O)C(C)Oc2ccc(F)cc2)c2ccccc2O1 (stereo not given) | > 42 µM (inactive)
30 | C[C@@]12C(=O)Nc3ccc(Br)cc3C(=O)N1[C@H]1c3ccccc3OC[C@@H]1[C@@H]2c1ccccc1 | > 42 µM (inactive)
31 | Cc1cc(N2CCN(C)CC2)nc2ccc(NC(=S)N3CCC4(CC3)OCCO4)cc12 | > 42 µM (inactive)
32 | Cc1ccc2c(c1)C(=O)N1[C@H]3c4ccccc4OC[C@@H]3[C@H](c3ccccc3)[C@]1(C)C(=O)N2 | > 42 µM (inactive)
33 | O=C(COC(=O)/C=C/c1ccco1)Nc1ncc(C(F)(F)F)cc1Cl | > 42 µM (inactive)
34 | c1ccc(-c2nc(N3CCOCC3)c3ccccc3n2)nc1 | > 42 µM (inactive)
35 | Cc1ccccc1Nc1cc(=O)oc2ccccc12 | > 42 µM (inactive)
36 | O=S(=O)(Cc1cc(-c2ccccc2)no1)c1ccccc1 | > 42 µM (inactive)
37 | CCOC(=O)c1ccccc1NC(=O)C1CC(=O)N(C2CCCCC2)C1 (stereo not given) | > 42 µM (inactive)
38 | COc1ccc(-c2nc(NC(=O)CCNC(=O)c3ccco3)sc2C)cc1 | > 42 µM (inactive)
39 | O=C(Nc1ccc2c(c1)CCCN2C(=O)c1cccs1)c1cccc(F)c1 | > 42 µM (inactive)
40 | CCN1C(=S)N[C@@H](c2cccs2)C(C(=O)OC)=C1C | > 42 µM (inactive)
41 | CN(C)CCOC(=O)CCc1ccccc1 | > 42 µM (inactive)
42 | Cc1sc2nc(SCC(=O)NCCOCCO)n(C)c(=O)c2c1C | > 42 µM (inactive)
43 | O=C(CCNC(=O)c1ccc(Br)cc1)NCc1ccccc1F | > 42 µM (inactive)
44 | CNC(=O)c1ccccc1NC(=O)c1c(O)c2c([nH]c1=O)CCCC2 | > 42 µM (inactive)
45 | NS(=O)(=O)c1ccc(CCNC(=O)CN2CCN(c3ccc(F)cc3)CC2)cc1 | > 42 µM (inactive)
46 | CC(C)c1onc(C(=O)N(C)Cc2ccccc2)c1[N+](=O)[O-] | > 42 µM (inactive)
47 | COc1ccc(-c2nnc(SCC(C)C)o2)cc1 | > 42 µM (inactive)
48 | CCN1CCCC1CN(Cc1cc2ccc(C)cc2[nH]c1=O)C(=S)Nc1ccccc1C(=O)OC (stereo not given) | > 42 µM (inactive)

Row | Structure (SMILES) | AC50
49 | CCOC(=O)C1(CCOc2ccccc2)CCN(Cc2cccc(OC)c2O)CC1 | > 42 µM (inactive)
50 | Cc1ccc(C)c(NC(NC(=O)c2ccccn2)C(Cl)(Cl)Cl)c1 (stereo not given) | > 42 µM (inactive)
51 | Cc1cc(C)cc(C(=O)N2CCC3(CC2)NCCc2[nH]cnc23)c1 | > 42 µM (inactive)
52 | CS(=O)(=O)N(CC(=O)Nc1ccccc1C(=O)N1CCCC1)c1ccc2c(c1)OCO2 | > 42 µM (inactive)
53 | NS(=O)(=O)c1cccc(NC(=O)c2cccnc2Oc2ccccc2)c1 | > 42 µM (inactive)
54 | CCC1(c2ccccc2)NC(=O)N(CC(=O)N(C)CC(=O)Nc2ccc(F)c(F)c2F)C1=O (stereo not given) | > 42 µM (inactive)
55 | N#Cc1ccc(/C=C/C(=O)c2ccco2)cc1 | > 42 µM (inactive)
56 | N=c1ncn(CC(O)CO)c2nc(N3CCOCC3)[nH]c12 (stereo not given) | > 42 µM (inactive)
57 | CCOC(=O)CSc1cc(C)nc2ccc(OC)cc12 | > 42 µM (inactive)
58 | COc1ccc(CCNC(=O)C/C(C)=N/NC(=O)COc2ccc(C)cc2Br)cc1OC | > 42 µM (inactive)
59 | Cc1noc(C)c1S(=O)(=O)N1CCCC(C(=O)NCC2CCCO2)C1 (stereo not given) | > 42 µM (inactive)
60 | CCn1c(=O)n(CC)c2cc(NC(=O)c3ccccc3Cl)ccc21 | > 42 µM (inactive)
61 | O=C(Nc1ccc(S(=O)(=O)NC2=NCCCCC2)cc1)c1ccc(C(F)(F)F)cc1 | > 42 µM (inactive)
62 | CC(C)C(=O)Nc1ccc(NC(=S)NC(=O)c2ccccc2F)cc1 | > 42 µM (inactive)
63 | CSc1ncccc1C(=O)NC1CCCc2c1cnn2-c1ccc(C)c(C)c1 (stereo not given) | > 42 µM (inactive)
64 | CC1=Nc2ccccc2/C1=C\c1nc(-c2ccccc2)oc1O | > 42 µM (inactive)
65 | Cn1cnnc1-c1cccc(NS(=O)(=O)c2ccc(N3CCCC3=O)cc2)c1 | > 42 µM (inactive)
66 | C/C(N)=C(/C#N)C(=O)CSc1nnc(-c2ccccc2)n1C | > 42 µM (inactive)
67 | C/C=C(/C)C(=O)OC1c2c(ccc3ccc(=O)oc23)OC(C)(C)C1OC(=O)/C(C)=C\C (stereo not given) | > 42 µM (inactive)
68 | CCC(NC(=O)c1ccccc1NC(=O)c1ccco1)C(=O)NC1CCCCC1 (stereo not given) | > 42 µM (inactive)
69 | O=C(O)CCC(NC(=O)c1ccc(Cl)cc1)C(=O)O (stereo not given) | > 42 µM (inactive)
70 | CCCC(=O)N(CCN1CCOCC1)c1nc2ccc(OCC)cc2s1 | > 42 µM (inactive)
